Experiments:
[1] = Degradation Example 4: oxidation with hydrogen peroxide, monitored by HPLC; type: physicochemical; conditions: after 3 hours at RT
Procedure: As a control, the corresponding cyclic nucleotide with phosphorothioate modification (Rp-8-BT-2′-O-Me-cAMPS, Biolog) had been added. The oxidation process was monitored by reversed phase HPLC (RP-18, 30 Vol.-% acetonitrile, 20 mM triethylammonium formate buffer, pH 8.3, 2 ml/min, UV 282 nm). The areas of both peaks were recorded, integrated and compared (Tab. 2).

[2] = Degradation Example 6: oxidation with hydrogen peroxide, monitored by HPLC; type: physicochemical; conditions: after 1 hour at RT
Procedure: Thus, 0.1 μmol of the cyclic boranophosphate 2-chloroadenosine-3′,5′-cyclic boranophosphate, Sp-isomer (Sp-2-Cl-cAMPB, example 71) and 0.1 μmol of the corresponding phosphorothioate 2-chloroadenosine-3′,5′-cyclic phosphorothioate, Rp-isomer (Rp-2-Cl-cAMPS, Biolog) as a control, were each dissolved in 100 μl of water, combined and treated with 10 μl of 30% aqueous hydrogen peroxide (Merck), and another 10 μl after one hour. During 2.5 hours, oxidative degradation was monitored by HPLC (RP-18, 15 Vol.-% acetonitrile, 20 mM triethylammonium formate buffer, pH 6.5, 1.5 ml/min., UV 262 nm). Corresponding peak areas were recorded, integrated and compared (Tab. 5).

[3] = Degradation Example 8: oxidation with hydrogen peroxide, monitored by HPLC; type: physicochemical; conditions: after 1 hour at RT
Procedure: Finally, with the Sp-isomer of 8-bromoguanosine-3′,5′-cyclic boranophosphate (Sp-8-Br-cGMPB, example 6) also the oxidative stability of a cyclic boranophosphate with a modified guanine nucleobase was investigated and again compared to the corresponding phosphorothioate Rp-8-bromoguanosine-3′,5′-cyclic phosphorothioate (Rp-8-Br-cGMPS, Biolog).
Both compounds were treated together with two 10 μl doses of 30% aqueous hydrogen peroxide (Merck). During more than four hours, oxidative degradation was monitored by HPLC (RP-18, 15 Vol.-% acetonitrile, 20 mM triethylammonium formate buffer, pH 6.5, 1.5 ml/min., UV 263 nm) and corresponding peak areas were recorded and compared (Tab. 7).

[4] = target: protein kinase A type II alpha holoenzyme (Homo sapiens, UniProt P13861); test: Photometric (Cook) assay with protein kinase A type II alpha holoenzyme; type: biochemical; conditions: activation of protein kinase A type II; data not shown
Source text: In another similar experiment the properties of Rp- and Sp-8-Br-cAMPB towards protein kinase A type II a were investigated in the photometric assay (Cook, P. F., Neville, M. E., Jr., Vrana, K. E., Hartl, F. T. and Roskoski, R., Jr., Biochemistry 21, 5794-5799 (1982))

PDE 1 = test: Resistance towards phosphodiesterase: incubation with PDE 1 from bovine heart, HPLC; conditions: bovine, pH 7.2
Procedure: (§1) For this purpose 0.1 μmol of Rp-8-bromoadenosine-3′,5′-cyclic boranophosphate (example 1) and Sp-8-bromoadenosine-3′,5′-cyclic boranophosphate […] dissolved in TRIS buffer pH 7.2 containing calcium chloride and calmodulin and incubated with PDE type I from bovine brain (Sigma-Aldrich) at 37° C. Activity of the enzyme was checked by hydrolysis of cyclic AMP. Stability was monitored by HPLC (RP-18, 11 Vol.-% propanol-2, 20 mM TEAF buffer, pH 6.8, 1 ml/min., UV 264 nm). […] This strategy of testing PDE performance was applied accordingly in degradation examples 10 and 11.
(§2) Thus, Rp-8-Br-cAMPB (example 1) and Sp-8-Br-cAMPS (Biolog, Bremen/Germany) were incubated with PDE 1 from bovine heart (Sigma-Aldrich) and monitored by HPLC as described above.
(§3) Rp-2′-O-Me-cAMPB (example 7) and Sp-2′-O-Me-cAMPS (Biolog, Bremen/Germany).

PDE IV (A4B) = target: T1, PDE IV (A4B) (Homo sapiens, UniProt P27815); test: Stability against PDE IV, HPLC; type: in vitro ADME; conditions: several days
T1 construct: Houslay lab, Glasgow/Scotland (obtained from another laboratory)
Procedure: Next, stability of the disclosed boranophosphates against PDE IV (A4B, Houslay lab, Glasgow/Scotland) was tested in similar experiments as described above.

[5] = test system: PDE type I from bovine brain; test: Resistance towards phosphodiesterase: incubation with PDE type I from bovine brain, HPLC; conditions: PDE type I from bovine brain, 37° C., up to 8 days
Procedure: Activity of the enzyme was checked by hydrolysis of cyclic AMP. Stability was monitored by HPLC (RP-18, 11 Vol.-% propanol-2, 20 mM TEAF buffer, pH 6.8, 1 ml/min., UV 264 nm).

PDE 1 from bovine heart = test: Resistance towards phosphodiesterase: incubation with PDE 1 from bovine heart, HPLC; conditions: PDE 1 from bovine heart, up to 8 days of incubation
Procedure: as §1, §2, §3

[6] = target: protein kinase A type I alpha holoenzyme (Homo sapiens, UniProt P10644); test: Standard photometric (Cook) assay with protein kinase A type I alpha holoenzyme; type: biochemical; conditions: holoenzyme RIα
Source text: In a first experiment, the biological activity of the Rp- and Sp-isomer of 8-bromoadenosine-3′,5′-cyclic boranophosphate (examples 1 and 2) has been tested with the holoenzyme of protein kinase A type I alpha (FIGS. 3 and 4) using a standard photometric assay (Cook, P. F.; Neville, M. E., Jr.; Vrana, K. E.; Hartl, F. T. and Roskoski, R., Jr., Biochemistry 21, 5794-5799 (1982)).
As a control, two boranophosphate analogues with a 2′-O-methyl modification (Rp-2′-O-Me-cAMPB and Sp-2′-O-Me-cAMPB, examples 7 & 8) have been tested by the same type of assay with protein kinase A type I alpha as well.
FIG. 5 depicts the activity overview of four different cyclic boranophosphate analogues with protein kinase A type I alpha holoenzyme. 9108: Sp-2′-O-Me-cAMPB; 9109: Rp-2′-O-Me-cAMPB; 9110: Sp-8-Br-cAMPB; 9111: Rp-8-Br-cAMPB; controls: B 001: Rp-8-Br-cAMPS. Control: cAMP. “Cook Assay” with Holoenzyme RIα.

[7] = target: T2, protein kinase G type I α, activated by cGMP (Homo sapiens, UniProt Q13976); test: Suppression of cGMP-stimulated protein kinase G type I alpha activity; type: biochemical; conditions: 10 nM, 100 nM and 1 μM; cGMP 200 nM
T2 sequence (Q13976 1-671): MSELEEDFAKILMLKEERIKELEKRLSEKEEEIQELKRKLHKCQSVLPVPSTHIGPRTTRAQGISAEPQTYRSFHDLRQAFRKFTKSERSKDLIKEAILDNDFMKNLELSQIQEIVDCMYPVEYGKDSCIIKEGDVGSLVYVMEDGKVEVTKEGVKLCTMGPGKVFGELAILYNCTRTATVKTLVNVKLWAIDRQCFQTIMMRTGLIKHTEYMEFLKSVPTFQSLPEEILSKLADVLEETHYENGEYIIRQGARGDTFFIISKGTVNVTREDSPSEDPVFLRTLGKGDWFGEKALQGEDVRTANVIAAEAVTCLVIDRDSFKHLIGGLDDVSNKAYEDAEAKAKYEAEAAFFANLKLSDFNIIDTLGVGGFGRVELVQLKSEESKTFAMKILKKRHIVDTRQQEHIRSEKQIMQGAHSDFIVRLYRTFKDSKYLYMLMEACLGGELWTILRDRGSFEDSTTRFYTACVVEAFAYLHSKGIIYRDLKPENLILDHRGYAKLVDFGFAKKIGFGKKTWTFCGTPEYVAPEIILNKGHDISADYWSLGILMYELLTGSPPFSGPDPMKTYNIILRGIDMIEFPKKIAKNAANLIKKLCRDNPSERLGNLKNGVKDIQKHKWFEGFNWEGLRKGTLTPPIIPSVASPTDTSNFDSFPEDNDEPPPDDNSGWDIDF

Chain of protein kinase A type I alpha holoenzyme (P10644 whole entry): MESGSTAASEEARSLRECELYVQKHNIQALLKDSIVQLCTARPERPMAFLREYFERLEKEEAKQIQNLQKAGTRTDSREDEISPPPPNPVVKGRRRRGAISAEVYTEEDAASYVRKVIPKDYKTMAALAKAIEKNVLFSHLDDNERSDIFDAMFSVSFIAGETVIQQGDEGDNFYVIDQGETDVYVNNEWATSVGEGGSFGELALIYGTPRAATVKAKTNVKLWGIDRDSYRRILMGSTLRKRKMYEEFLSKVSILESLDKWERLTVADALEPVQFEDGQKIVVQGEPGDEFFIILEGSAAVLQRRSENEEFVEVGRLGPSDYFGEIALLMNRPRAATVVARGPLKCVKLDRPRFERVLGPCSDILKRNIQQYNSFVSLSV
T1 sequence (P27815 whole entry): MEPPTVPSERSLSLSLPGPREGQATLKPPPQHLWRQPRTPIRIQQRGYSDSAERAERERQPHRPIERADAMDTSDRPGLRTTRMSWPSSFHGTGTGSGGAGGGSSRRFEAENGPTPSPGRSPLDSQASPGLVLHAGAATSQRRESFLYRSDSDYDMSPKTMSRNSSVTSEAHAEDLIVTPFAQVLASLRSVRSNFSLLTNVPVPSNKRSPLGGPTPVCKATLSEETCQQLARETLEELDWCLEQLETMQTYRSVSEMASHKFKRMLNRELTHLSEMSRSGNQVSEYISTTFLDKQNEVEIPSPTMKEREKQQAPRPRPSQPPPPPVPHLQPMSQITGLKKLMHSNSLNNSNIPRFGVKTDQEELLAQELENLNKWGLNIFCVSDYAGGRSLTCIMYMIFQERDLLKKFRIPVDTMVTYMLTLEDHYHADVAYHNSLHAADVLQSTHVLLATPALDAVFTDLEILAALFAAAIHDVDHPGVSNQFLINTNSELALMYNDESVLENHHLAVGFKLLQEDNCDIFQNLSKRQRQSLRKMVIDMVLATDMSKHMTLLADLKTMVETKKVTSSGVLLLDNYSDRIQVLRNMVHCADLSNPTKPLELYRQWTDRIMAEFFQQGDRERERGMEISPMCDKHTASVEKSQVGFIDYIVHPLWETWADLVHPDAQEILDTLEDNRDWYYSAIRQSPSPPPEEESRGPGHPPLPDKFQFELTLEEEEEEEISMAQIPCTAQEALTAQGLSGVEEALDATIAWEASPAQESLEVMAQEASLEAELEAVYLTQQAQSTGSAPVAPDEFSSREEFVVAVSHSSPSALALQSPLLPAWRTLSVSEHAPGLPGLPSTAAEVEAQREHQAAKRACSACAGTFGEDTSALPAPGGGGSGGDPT
Chain of protein kinase A type II alpha holoenzyme (P13861 whole entry): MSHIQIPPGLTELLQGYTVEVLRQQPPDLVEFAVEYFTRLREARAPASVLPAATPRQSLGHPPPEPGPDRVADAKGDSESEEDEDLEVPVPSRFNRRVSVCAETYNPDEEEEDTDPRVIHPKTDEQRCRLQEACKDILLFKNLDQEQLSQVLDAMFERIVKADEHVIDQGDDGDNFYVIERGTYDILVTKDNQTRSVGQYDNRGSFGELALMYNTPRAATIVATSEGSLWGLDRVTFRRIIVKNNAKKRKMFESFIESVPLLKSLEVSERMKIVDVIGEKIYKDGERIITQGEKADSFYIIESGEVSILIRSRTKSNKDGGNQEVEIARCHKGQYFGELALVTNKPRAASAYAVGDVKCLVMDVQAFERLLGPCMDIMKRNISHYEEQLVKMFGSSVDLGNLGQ

Molecule: 8-Benzylthio-2′-O-methyladenosine-3′,5′-cyclic boranophosphate, SP-isomer [Sp-8-BT-2′-O-Me-cAMPB]
- peak area, % of the original area [1]: 73%

Molecule: Nc1nc(Cl)nc2c1ncn2[C@@H]1O[C@@H]2COP(O)(=S)OC2[C@@H]1O (single isomer, unassigned) [Rp-2-Cl-cAMPS, 2-chloroadenosine-3′,5′-cyclic phosphorothioate, Rp-isomer, reference compound]
- degraded [2]: 22%

Molecule: 2-Chloroadenosine-3′,5′-cyclic boranophosphate, Rp-isomer [Rp-2-Cl-cAMPB]
- peak area, % of the original area [2]: 90%

Molecule: Nc1nc2c(nc(Br)n2[C@@H]2O[C@@H]3COP(O)(=S)O[C@H]3[C@H]2O)c(=O)[nH]1 (stereo partly drawn) [Rp-8-Br-cGMPS, Rp-8-bromoguanosine-3′,5′-cyclic phosphorothioate, reference compound]
- degraded [3]: 15%

Molecule: Nc1ncnc2c1nc(Br)n2C1OC2COP(O)(=S)OC2C1O (stereo not drawn) [Sp-8-Br-cAMPS, Sp-8-bromoadenosine-3′,5′-cyclic phosphorothioate, reference compound]
- EC50 [4]: 710 nM
- half-life (PDE 1): ~50 h

Molecule: B[PH]1(O)OC[C@H]2O[C@@H](n3cnc4c(N)ncnc43)C(OC)[C@@H]2O1 (stereo partly drawn) [Rp-2′-O-Me-cAMPB, 2′-O-Methyladenosine-3′,5′-cyclic boranophosphate, Rp-isomer]
- stability against PDE IV (PDE IV (A4B)): completely stable
- degradation by PDE [5]: stable over the whole assay period
- degradation by PDE (PDE 1 from bovine heart): stable over the whole assay period
- effect on protein kinase A type I alpha holoenzyme [6]: neither Rp- nor Sp-2′-O-Me-cAMPB did modulate the kinase in any way

Molecule: B[PH]1(O)OC[C@H]2O[C@@H](n3c(Br)nc4c(=O)[nH]c(N)nc43)C(O)[C@@H]2O1 (stereo partly drawn) [Sp-8-Br-cGMPB, 8-Bromoguanosine-3′,5′-cyclic boranophosphate, Sp-isomer]
- antagonism of protein kinase G [7]: showed antagonistic potential
- peak area, % of the original area [3]: 65%
